{"source": "patent US8735601B2", "about": "“Pentamethine cyanine fluorescent dye with N-substituting at β-position of conjugated chain” (Dalian University of Technology, priority 2010, dated 2014)", "key": {"[1]": {"test": "Absorption and emission spectra of dyes in different solvents", "type": "physicochemical", "design": "key to Δλ1 / Δλ2: Stokes shift in nm; ε1 (molar extinction coefficient) / ε2 (molar extinction coefficient): scale not given here", "conditions": "for Δλ1: Stokes shift to absorption peak 1; for Δλ2: Stokes shift to absorption peak 2", "description": "In the present invention, compounds IIa to IIg were synthesized based on compound II, and their spectral properties were investigated. Compared with the traditional pentamethine cyanine dye, for the novel pentamethine cyanine dye with N-substituting at β-position (deviated position), it was observed that, evident blue shift of absorption and emission wavelengths occurred, absorption wavelength blue shifted even largely than that of emission wavelength, absorption spectrum and fluorescence spectrum were no longer mirror-symmetric and had two absorption peaks and a single emission peak, and larger Stokes shift (minimum 60 and 150 nm, and maximum 90 and 230 nm) appeared."}, "[2]": {"test": "Measurement of fluorescence quantum yield (Rhodamine B in ethanol as reference)", "type": "physicochemical"}}, "data": [{"smiles": "CCN1/C(=C/C=C/C(=C/C2=[N+](CC)c3ccccc3C2(C)C)N(Cc2ccccc2)Cc2ccccc2)C(C)(C)c2ccccc21", "note": "[Dye IIf]", "values": [{"measurement": "Δλ1", "setting": "[1]; solvent DCM", "result": 87}, {"measurement": "Δλ1", "setting": "[1]; solvent DMSO", "result": 90}, {"measurement": "Δλ1", "setting": "[1]; solvent Ethanol", "result": 87}, {"measurement": "Δλ1", "setting": "[1]; solvent Methanol", "result": 90}, {"measurement": "Δλ1", "setting": "[1]; solvent THF", "result": 86}, {"measurement": "Δλ1", "setting": "[1]; solvent Water", "result": 93}, {"measurement": "Δλ2", "setting": "[1]; solvent DCM", "result": 162}, {"measurement": "Δλ2", "setting": "[1]; solvent DMSO", "result": 151}, {"measurement": "Δλ2", "setting": "[1]; solvent Ethanol", "result": 163}, {"measurement": "Δλ2", "setting": "[1]; solvent Methanol", "result": 166}, {"measurement": "Δλ2", "setting": "[1]; solvent THF", "result": 156}, {"measurement": "Δλ2", "setting": "[1]; solvent Water", "result": 171}, {"measurement": "ε1 (molar extinction coefficient)", "setting": "[1]; solvent DCM", "result": 3.1, "unit": "cm^−1M"}, {"measurement": "ε2 (molar extinction coefficient)", "setting": "[1]; solvent DCM", "result": 2.1, "unit": "cm^−1M"}, {"measurement": "λabs1", "setting": "[1]; solvent DCM", "result": 528, "unit": "nm"}, {"measurement": "λbs2", "setting": "[1]; solvent DCM", "result": 453, "unit": "nm"}, {"measurement": "λem", "setting": "[1]; solvent DCM", "result": 615, "unit": "nm"}, {"measurement": "ε1 (molar extinction coefficient)", "setting": "[1]; solvent DMSO", "result": 3.3, "unit": "cm^−1M"}, {"measurement": "ε2 (molar extinction coefficient)", "setting": "[1]; solvent DMSO", "result": 2.2, "unit": "cm^−1M"}, {"measurement": "λabs1", "setting": "[1]; solvent DMSO", "result": 521, "unit": "nm"}, {"measurement": "λbs2", "setting": "[1]; solvent DMSO", "result": 460, "unit": "nm"}, {"measurement": "λem", "setting": "[1]; solvent DMSO", "result": 611, "unit": "nm"}, {"measurement": "ε1 (molar extinction coefficient)", "setting": "[1]; solvent Ethanol", "result": 3.4, "unit": "cm^−1M"}, {"measurement": "ε2 (molar extinction coefficient)", "setting": "[1]; solvent Ethanol", "result": 2.5, "unit": "cm^−1M"}, {"measurement": "λabs1", "setting": "[1]; solvent Ethanol", "result": 528, "unit": "nm"}, {"measurement": "λbs2", "setting": "[1]; solvent Ethanol", "result": 452, "unit": "nm"}, {"measurement": "λem", "setting": "[1]; solvent Ethanol", "result": 615, "unit": "nm"}, {"measurement": "ε1 (molar extinction coefficient)", "setting": "[1]; solvent Methanol", "result": 3.4, "unit": "cm^−1M"}, {"measurement": "ε2 (molar extinction coefficient)", "setting": "[1]; solvent Methanol", "result": 2.5, "unit": "cm^−1M"}, {"measurement": "λabs1", "setting": "[1]; solvent Methanol", "result": 527, "unit": "nm"}, {"measurement": "λbs2", "setting": "[1]; solvent Methanol", "result": 451, "unit": "nm"}, {"measurement": "λem", "setting": "[1]; solvent Methanol", "result": 617, "unit": "nm"}, {"measurement": "ε1 (molar extinction coefficient)", "setting": "[1]; solvent THF", "result": 4.0, "unit": "cm^−1M"}, {"measurement": "ε2 (molar extinction coefficient)", "setting": "[1]; solvent THF", "result": 2.0, "unit": "cm^−1M"}, {"measurement": "λabs1", "setting": "[1]; solvent THF", "result": 523, "unit": "nm"}, {"measurement": "λbs2", "setting": "[1]; solvent THF", "result": 453, "unit": "nm"}, {"measurement": "λem", "setting": "[1]; solvent THF", "result": 609, "unit": "nm"}, {"measurement": "ε1 (molar extinction coefficient)", "setting": "[1]; solvent Water", "result": 2.5, "unit": "cm^−1M"}, {"measurement": "ε2 (molar extinction coefficient)", "setting": "[1]; solvent Water", "result": 1.9, "unit": "cm^−1M"}, {"measurement": "λabs1", "setting": "[1]; solvent Water", "result": 525, "unit": "nm"}, {"measurement": "λbs2", "setting": "[1]; solvent Water", "result": 447, "unit": "nm"}, {"measurement": "λem", "setting": "[1]; solvent Water", "result": 618, "unit": "nm"}, {"measurement": "Φ1 (fluorescence quantum yield)", "setting": "[2]; solvent DCM", "result": 0.113}, {"measurement": "Φ2 (fluorescence quantum yield)", "setting": "[2]; solvent DCM", "result": 0.105}, {"measurement": "Φ1 (fluorescence quantum yield)", "setting": "[2]; solvent DMSO", "result": 0.004}, {"measurement": "Φ2 (fluorescence quantum yield)", "setting": "[2]; solvent DMSO", "result": 0.005}, {"measurement": "Φ1 (fluorescence quantum yield)", "setting": "[2]; solvent Ethanol", "result": 0.010}, {"measurement": "Φ2 (fluorescence quantum yield)", "setting": "[2]; solvent Ethanol", "result": 0.009}, {"measurement": "Φ1 (fluorescence quantum yield)", "setting": "[2]; solvent Methanol", "result": 0.005}, {"measurement": "Φ2 (fluorescence quantum yield)", "setting": "[2]; solvent Methanol", "result": 0.004}, {"measurement": "Φ1 (fluorescence quantum yield)", "setting": "[2]; solvent THF", "result": 0.036}, {"measurement": "Φ2 (fluorescence quantum yield)", "setting": "[2]; solvent THF", "result": 0.034}, {"measurement": "Φ1 (fluorescence quantum yield)", "setting": "[2]; solvent Water", "result": 0.001}, {"measurement": "Φ2 (fluorescence quantum yield)", "setting": "[2]; solvent Water", "result": 0.002}]}, {"smiles": "CCN1/C(=C/C=C/C(=C/C2=[N+](CC)c3ccccc3C2(C)C)Nc2ccccc2)C(C)(C)c2ccccc21", "note": "[Dye IIg]", "values": [{"measurement": "Δλ1", "setting": "[1]; solvent DCM", "result": 75}, {"measurement": "Δλ1", "setting": "[1]; solvent DMSO", "result": 80}, {"measurement": "Δλ1", "setting": "[1]; solvent Ethanol", "result": 77}, {"measurement": "Δλ1", "setting": "[1]; solvent Methanol", "result": 77}, {"measurement": "Δλ1", "setting": "[1]; solvent THF", "result": 83}, {"measurement": "Δλ1", "setting": "[1]; solvent Water", "result": 81}, {"measurement": "Δλ2", "setting": "[1]; solvent DCM", "result": 180}, {"measurement": "Δλ2", "setting": "[1]; solvent DMSO", "result": 230}, {"measurement": "Δλ2", "setting": "[1]; solvent Ethanol", "result": 206}, {"measurement": "Δλ2", "setting": "[1]; solvent Methanol", "result": 208}, {"measurement": "Δλ2", "setting": "[1]; solvent THF", "result": 236}, {"measurement": "Δλ2", "setting": "[1]; solvent Water", "result": 200}, {"measurement": "ε1 (molar extinction coefficient)", "setting": "[1]; solvent DCM", "result": 3.6, "unit": "cm^−1M"}, {"measurement": "ε2 (molar extinction coefficient)", "setting": "[1]; solvent DCM", "result": 2.1, "unit": "cm^−1M"}, {"measurement": "λabs1", "setting": "[1]; solvent DCM", "result": 570, "unit": "nm"}, {"measurement": "λbs2", "setting": "[1]; solvent DCM", "result": 465, "unit": "nm"}, {"measurement": "λem", "setting": "[1]; solvent DCM", "result": 645, "unit": "nm"}, {"measurement": "ε1 (molar extinction coefficient)", "setting": "[1]; solvent DMSO", "result": 1.9, "unit": "cm^−1M"}, {"measurement": "ε2 (molar extinction coefficient)", "setting": "[1]; solvent DMSO", "result": 2.1, "unit": "cm^−1M"}, {"measurement": "λabs1", "setting": "[1]; solvent DMSO", "result": 566, "unit": "nm"}, {"measurement": "λbs2", "setting": "[1]; solvent DMSO", "result": 416, "unit": "nm"}, {"measurement": "λem", "setting": "[1]; solvent DMSO", "result": 646, "unit": "nm"}, {"measurement": "ε1 (molar extinction coefficient)", "setting": "[1]; solvent Ethanol", "result": 2.5, "unit": "cm^−1M"}, {"measurement": "ε2 (molar extinction coefficient)", "setting": "[1]; solvent Ethanol", "result": 2.0, "unit": "cm^−1M"}, {"measurement": "λabs1", "setting": "[1]; solvent Ethanol", "result": 563, "unit": "nm"}, {"measurement": "λbs2", "setting": "[1]; solvent Ethanol", "result": 434, "unit": "nm"}, {"measurement": "λem", "setting": "[1]; solvent Ethanol", "result": 640, "unit": "nm"}, {"measurement": "ε1 (molar extinction coefficient)", "setting": "[1]; solvent Methanol", "result": 2.3, "unit": "cm^−1M"}, {"measurement": "ε2 (molar extinction coefficient)", "setting": "[1]; solvent Methanol", "result": 2.2, "unit": "cm^−1M"}, {"measurement": "λabs1", "setting": "[1]; solvent Methanol", "result": 561, "unit": "nm"}, {"measurement": "λbs2", "setting": "[1]; solvent Methanol", "result": 430, "unit": "nm"}, {"measurement": "λem", "setting": "[1]; solvent Methanol", "result": 638, "unit": "nm"}, {"measurement": "ε1 (molar extinction coefficient)", "setting": "[1]; solvent THF", "result": 0.9, "unit": "cm^−1M"}, {"measurement": "ε2 (molar extinction coefficient)", "setting": "[1]; solvent THF", "result": 2.8, "unit": "cm^−1M"}, {"measurement": "λabs1", "setting": "[1]; solvent THF", "result": 556, "unit": "nm"}, {"measurement": "λbs2", "setting": "[1]; solvent THF", "result": 403, "unit": "nm"}, {"measurement": "λem", "setting": "[1]; solvent THF", "result": 639, "unit": "nm"}, {"measurement": "ε1 (molar extinction coefficient)", "setting": "[1]; solvent Water", "result": 1.7, "unit": "cm^−1M"}, {"measurement": "ε2 (molar extinction coefficient)", "setting": "[1]; solvent Water", "result": 2.2, "unit": "cm^−1M"}, {"measurement": "λabs1", "setting": "[1]; solvent Water", "result": 559, "unit": "nm"}, {"measurement": "λbs2", "setting": "[1]; solvent Water", "result": 440, "unit": "nm"}, {"measurement": "λem", "setting": "[1]; solvent Water", "result": 640, "unit": "nm"}, {"measurement": "Φ1 (fluorescence quantum yield)", "setting": "[2]; solvent DCM", "result": 0.064}, {"measurement": "Φ2 (fluorescence quantum yield)", "setting": "[2]; solvent DCM", "result": 0.055}, {"measurement": "Φ1 (fluorescence quantum yield)", "setting": "[2]; solvent DMSO", "result": 0.014}, {"measurement": "Φ2 (fluorescence quantum yield)", "setting": "[2]; solvent DMSO", "result": 0.002}, {"measurement": "Φ1 (fluorescence quantum yield)", "setting": "[2]; solvent Ethanol", "result": 0.019}, {"measurement": "Φ2 (fluorescence quantum yield)", "setting": "[2]; solvent Ethanol", "result": 0.006}, {"measurement": "Φ1 (fluorescence quantum yield)", "setting": "[2]; solvent Methanol", "result": 0.011}, {"measurement": "Φ2 (fluorescence quantum yield)", "setting": "[2]; solvent Methanol", "result": 0.004}, {"measurement": "Φ1 (fluorescence quantum yield)", "setting": "[2]; solvent THF", "result": 0.037}, {"measurement": "Φ2 (fluorescence quantum yield)", "setting": "[2]; solvent THF", "result": 0.0002}, {"measurement": "Φ1 (fluorescence quantum yield)", "setting": "[2]; solvent Water", "result": 0.003}, {"measurement": "Φ2 (fluorescence quantum yield)", "setting": "[2]; solvent Water", "result": 0.001}]}]}
